{"source": "patent US5302611A", "about": "“Oxindole alkaloids having properties stimulating the immunologic system & preparation containing the same” (Keplinger; Klaus, priority 1980, dated 1994)", "key": {"[1]": {"tested_on": "ascites cells of Walker-250-carcinosarcoma", "assay": "Cytotoxicity test by the 3H-thymidine-incorporation test on ascites cells", "assay_type": "cell-based, rats", "conditions": "Rattus norvegicus, read-out: mean value of the inhibition of 3H-thymidine incorporation", "text": "5. Cytotoxicity test by the ^3 H-thymidine-incorporation test on ascites cells\nSince in the granulocytic test some substances lyse the granulocytes at high concentrations we examined the cell-damaging effect at the model of the ^3 H-thymidine-incorporation test in ascites cells to be able to find a possible relation between the phagocytosis increase and cytotoxicity in potential active substances.\nIn this in-vitro-test system according to WEITZEL et al (H oppe-Seyler's Z. physiolog. Chem. 348, 433, 1967) the cytotoxicity of substances by inhibition of the DNA-synthesis of tumour cells can be numerically determined by the changed incorporation rates of ^3 H-thymidine in ascites cells of Walter-250-carcinos arcoma of rats.\nThe test was carried out as follows: 3 ml of cell suspension of Walker-250-carcinosarcoma-ascites were mixed with 10 ml of MEDIUM L-15 (Boehringer) in a 50 ml centrifugal glass and centrifugated for 10 minutes. The supernatant was decanted and the centrifugal glass was filled up with medium to 1 cm below the rim. From the stirred cell suspension 1 ml (corresponds to 2×10^6 cells/ml) per sample was given into a centrifugal glass and 500 μl of the test solution were added, the control test was carried out with 500 μl of medium. […] The filters were given in polyethylene flasks and the activities were measured in toluene-scintillator. […]"}, "diluted whole blood": {"tested_on": "diluted whole blood", "assay": "Chemiluminescence test (CL), whole blood method", "assay_type": "cell-based", "conditions": "Homo sapiens, 1 h, read-out: Percental increase of the CL-response", "method": "(§1) 2. Chemiluminescence test (CL)\n(§2) The low light yield of such CL-reactions of phagocytised cells is increased in the in-vitro-experiment by the addition of substances which are oxydated by activated oxygen and thus produce light of a certain wavelength, which can be physically measured. Suitable substrates are luminole (5-amino-2,3-dihydro-1,4-phthalazindione) and lucigenine (10,10'-dimethyl-9,9'-biacri-diniumdinitrate), which increase the CL-response by 10^3 times.\n(§3) All tests were carried out in 6-channel-Biolumat LB 9505 of Berthold, connected to an Apple-computer with a CL-evaluation program of Berthold.\n(§4) Lucigenine was chosen for light amplification which emits photons at a narrow wavelength distribution of about 510 nm and thus almost lies in the optimum of the photo-multiplier sensitivity.\n(§5) The pH-value of the measuring solution should be between 7.1 and 7.4, which is obtained by the addition of veronal-buffered salt solution. The test substances were dissolved in phosphate-buffered salt solution, (PBS-buffer). Both buffer systems contain 0.1% of glucose, because the \"respiratory-burst\"-reaction is connected with an increase of the glucose-metabolism.\n(§6) Opsonised zymosan was used for phagocyte-activation. The measurement of the CL of isolated granulocytes was carried out with native blood of isolated polymorphonuclear leucocytes (PMNL), which had been adjusted with PBS-Puffer to 10^6 […].\n(§7) The test substances were first together with the isolated granulocytes or with the whole blood incubated at room temperature for 10 minutes and then in biclumate for 10 minutes at 37° C. After addition of the opsonised zymosan, measurement in the biolumat at 37° C. started. […] A curve which was typical for each substance was obtained. The integrated surfaces are directly proportional to the intensity of the CL-response.\n(§8) For determining the stimulation of the \"respiratory-burst\" of granulocytes,which had taken place, the same formula as for the granulocytic test was used.\n20 ml of native blood were mixed with 30 mg EDTA as anti-coagulant and diluted 1:100 with PBS-buffer.\n460 μl of veronal-buffered salt solution\n200 μl of diluted whole blood\n(§9) 100 μl of lucigenine-solution\n(§10) 200 μl of substance dissolved in PBS and PBS as control\n(§11) After preincubation at room temperature for 10 minutes and subsequent incubation for 10 minutes at 37° C. in 6-channel-Biolumat, 40 μl of opsonised zymosan were admixed under through stirring and measurement was started. Measuring was stopped after 60 minutes.\n(§12) The CL-response of the samples was stored by a computer over the measuring period, and after measurement illustrated in the form of a curve. By integration of the surfaces, the intensity of the CL-response of the respective sample was obtained in cpm.\n(§13) The increase S of the CL-response by a test substance was calculated according to [formula]"}, "[2]": {"tested_on": "isolated polymorphonuclear leucocytes (PMNL)", "assay": "Chemiluminescence test (CL), PMNL method (isolated granulocytes)", "assay_type": "cell-based, human", "conditions": "for Peak-Maximum: control 2.12; for tmax: control 50.0", "method": "as §1, §2, §3, §4, §5, §6, §7, §8\n20 ml of native blood were mixed with 30 mg EDTA. 15 ml of this blood were mixed with 7 ml of dextran in a syringe and allowed to stand at room temperature for 30 minutes. The leucocyte-containing supernatant was transfered into a sterile centrifugal tube and centrifugated at 1000 r.p.m. for 10 minutes. The deposit consisted of leucocytes and residual portions of erythrocytes, which can influence measurement by their colour quench. The residual erythrocytes were removed by hypotonic lyis. For this purpose, the deposit was suspended in 0.25% of NaCl-solution and agitated on the whirlmix for 20 seconds. Then 20 ml of 1.6% NaCl-solution were admixed and agitated again. After centrifugation at 2000 r.p.m. for 10 minutes, the supernatant was sucked off and the whole process was repeated twice. Subsequently, the deposit was suspended in 2 ml of PBS-buffer and diluted 1:10 with Turcks-solution. It was adjusted in the Neubauer's chamber with PBS-buffer to 10^6 -cells/ml.\n630 μl of veronal-buffered salt solution\nas §9, §10, §11, §12, §13"}, "[3]": {"tested_on": "neutrophil granulocytes (PMNL)", "assay": "Granulocytic test modified after BRANDT (phagocytosis of yeast particles)", "assay_type": "cell-based, human", "conditions": "up to dilutions of 10^-6 %", "text": "1. […] They represent about 60-70% of all leucocytes in the human blood. The phagocytosis effect of all these granulocytes can be measured in vitro according to a method developed by BRAND (Scand. J. Haematol. Suppl. 2, 1967) and modified by TYMPNER (Munich Med. Weekly 8, 251, 1978).\nA granulocytic fraction is taken from the blood of healthy probands (PMNL--abbreviation of polymorphonuclearleucocytes)\nThis PMNL-fraction mainly consists of neutrophil granulocytes and few eosinophil and basophil granulocytes as well as of lymphocytes, monocytes and thrombocytes. After addition of a defined amount of yeast cells (Saccharomyces cerevisiae) and the substance to be tested incubation is carried out for 10 minutes at 37° C., the suspension is spread on an object carrier and incubated at room temperature for further 35 minutes. Then the spreads are coloured and microscopically evaluated. 100 PMNL-cells are selected per object carrier, and it is determined how many yeast particles of the individual cells have been phagocytised. The phagocytosis index indicates the average number of phagocytised yeast particles.\n15 ml of heparinised venous blood of clinically healthy adults was diluted with 1.5% of dextran T 500 (Pharmacia) 2:1 and allowed to stand at room temperature for 30 minutes. The supernatant containing leucocytes was injected into a sterile plastic tube and centrifugated for 7 minutes at 500 r.p.m. The granulocytes in the deposit were washed twice with 5 ml of PPM I-buffer in each case. Then the granulocytes were suspended in about 5 ml of buffer and adjusted in the Neubauer's chamber to a concentration of 5×10^6 cells/ml.\nYeast suspended in 0.9% of NaCl was heated to 100° C., three times filtered through gaze and adjusted to 3-5×10^7 particles/ml.\nThe serum of 5 clinically healthy adults was mixed and frozen in portions of 5 ml. For the test dilution was carried out with 0.9% of NaCl 1:10.\nThe test was carried out as follows: 0.2 ml of substance dissolved in 0.9% of NaCl and 0.2 ml of 0.9% NaCl, as a control substance, were pipetted to 0.2 ml, each, of pool serum, granulocyte- and yeast suspension and first incubated for 10 minutes at 37° C. Then 0.5 ml of each preparation were applied to an object carrier and incubated in a humid chamber at room temperature for further 35 minutes. Granulocytes deposited, the supernatant was carefully washed with 0.9% of NaCl, and the object carrier was dried with a dryer.\n100 granulocytes were counted out per object carrier, and it was determined how many yeast particles of the individual cells had been phagocytised. The phagocytosis index (PJ) indicates the average number of yeast particles per granulocyte. The increase (S) of the phagocytosis activity in the blank value was calculated according to: [formula]"}, "macrophage-phagocytosis": {"tested_on": "macrophage-phagocytosis", "conditions": "concentrations of 10^-4 % and 10^-5 %; cited from earlier work"}, "[4]": {"conditions": "isolated granulocytes, concentration 10^-4 %"}, "[5]": {"conditions": "isolated granulocytes, concentration 10^-5 %"}, "[6]": {"conditions": "isolated granulocytes, concentration 10^-6 %"}, "[7]": {"conditions": "isolated granulocytes, concentration 10^-7 %"}, "[8]": {"conditions": "isolated granulocytes, concentration 10^-8 %"}}, "note": "Read-outs that look alike come from different tables or passages of the source.", "data": [{"molecule": "CN(Cc1cnc2nc(N)nc(N)c2n1)c1ccc(C(=O)N[C@@H](CCC(=O)O)C(=O)O)cc1", "note": "[Methotrexat®, N-[4-[[(2,4-Diamino-6-pteridinyl)methyl]methylamino]benzoyl]-L-glutamic acid]", "values": [{"measurement": "inhibition at 2000 µg/mL", "setting": "[1]", "value": 43, "unit": "%"}]}, {"molecule": "COc1cccc2c1cc([N+](=O)[O-])c1c(C(=O)O)cc3c(c12)OCO3", "note": "[aristolochic acid]", "values": [{"measurement": "activation at 0.001 %", "setting": "diluted whole blood; concentration 10^-3 %", "value": 51.9, "unit": "%"}, {"measurement": "activation at 0.0001 %", "setting": "diluted whole blood; concentration 10^-4 %", "value": 19.2, "unit": "%"}, {"measurement": "activation at 1e-05 %", "setting": "diluted whole blood; concentration 10^-5 %", "value": 21.8, "unit": "%"}, {"measurement": "activation at 1e-06 %", "setting": "diluted whole blood; concentration 10^-6 %", "value": 14, "unit": "%"}, {"measurement": "activation at 1e-07 %", "setting": "diluted whole blood; concentration 10^-7 %", "value": 5.5, "unit": "%"}, {"measurement": "activation at 0.0001 %", "setting": "[2]; Homo sapiens, 1 h, PMNL, concentration 10^-4 %, read-out: Percental increase of the CL-response", "value": 85.1, "unit": "%"}, {"measurement": "activation at 1e-05 %", "setting": "[2]; Homo sapiens, 1 h, PMNL, concentration 10^-5 %, read-out: Percental increase of the CL-response", "value": 93.5, "unit": "%"}, {"measurement": "activation at 1e-06 %", "setting": "[2]; Homo sapiens, 1 h, PMNL, concentration 10^-6 %, read-out: Percental increase of the CL-response", "value": 68.3, "unit": "%"}, {"measurement": "activation at 1e-07 %", "setting": "[2]; Homo sapiens, 1 h, PMNL, concentration 10^-7 %, read-out: Percental increase of the CL-response", "value": 61.9, "unit": "%"}, {"measurement": "activation at 1e-08 %", "setting": "[2]; Homo sapiens, 1 h, PMNL, concentration 10^-8 %, read-out: Percental increase of the CL-response", "value": 58.7, "unit": "%"}, {"measurement": "activation at 1e-09 %", "setting": "[2]; Homo sapiens, 1 h, PMNL, concentration 10^-9 %, read-out: Percental increase of the CL-response", "value": 31.3, "unit": "%"}, {"measurement": "activation at 0.0001 %", "setting": "[2]; Homo sapiens, PMNL, 1 h, isolated granulocytes, concentration 10^-4 %, read-out: Increase of CL-response", "value": 126, "unit": "%"}, {"measurement": "activation at 1e-05 %", "setting": "[2]; Homo sapiens, PMNL, 1 h, isolated granulocytes, concentration 10^-5 %, read-out: Increase of CL-response", "value": 160, "unit": "%"}, {"measurement": "activation at 1e-06 %", "setting": "[2]; Homo sapiens, PMNL, 1 h, isolated granulocytes, concentration 10^-6 %, read-out: Increase of CL-response", "value": 69.8, "unit": "%"}, {"measurement": "activation at 1e-07 %", "setting": "[2]; Homo sapiens, PMNL, 1 h, isolated granulocytes, concentration 10^-7 %, read-out: Increase of CL-response", "value": 52.8, "unit": "%"}, {"measurement": "activation at 1e-08 %", "setting": "[2]; Homo sapiens, PMNL, 1 h, isolated granulocytes, concentration 10^-8 %, read-out: Increase of CL-response", "value": 93.4, "unit": "%"}, {"measurement": "Peak-Maximum", "setting": "[2]; [4]", "value": 4.80, "unit": "cpm × 10^5"}, {"measurement": "tmax", "setting": "[2]; [4]", "value": 30.0, "unit": "min"}, {"measurement": "Peak-Maximum", "setting": "[2]; [5]", "value": 5.52, "unit": "cpm × 10^5"}, {"measurement": "tmax", "setting": "[2]; [5]", "value": 32.6, "unit": "min"}, {"measurement": "Peak-Maximum", "setting": "[2]; [6]", "value": 3.40, "unit": "cpm × 10^5"}, {"measurement": "tmax", "setting": "[2]; [6]", "value": 34.6, "unit": "min"}, {"measurement": "Peak-Maximum", "setting": "[2]; [7]", "value": 3.24, "unit": "cpm × 10^5"}, {"measurement": "tmax", "setting": "[2]; [7]", "value": 32.0, "unit": "min"}, {"measurement": "Peak-Maximum", "setting": "[2]; [8]", "value": 4.10, "unit": "cpm × 10^5"}, {"measurement": "tmax", "setting": "[2]; [8]", "value": 29.3, "unit": "min"}, {"measurement": "concentration of the efficiency maximum in the CL-test", "setting": "[2]; isolated granulocytes, lower by a power of ten than in the granulocytic test", "value": "10^-5%"}]}, {"molecule": "CC[C@]1(O)C[C@H]2CN(CCc3c([nH]c4ccccc34)[C@@](C(=O)OC)(c3cc4c(cc3OC)N(C=O)[C@H]3[C@@](O)(C(=O)OC)[C@H](OC(C)=O)[C@]5(CC)C=CCN6CC[C@]43[C@@H]65)C2)C1", "note": "[vincristine, reference compound]", "values": [{"measurement": "effect in the granulocytic test", "setting": "[3]", "value": "no effects have been found"}, {"measurement": "in-vitro-inhibition of the macrophage-phagocytosis", "setting": "macrophage-phagocytosis", "value": "in-vitro-inhibitionof the macrophage-phagocytosis has been found"}]}]}
